The values that follow come from publication PMC11596392, “Enhanced Antibacterial, Anti-Inflammatory, and Antibiofilm Activities of Tryptophan-Substituted Peptides Derived from Cecropin A-Melittin Hybrid Peptide BP100” (Molecules, 2024).

Test [1] deals with P. aeruginosa (KCTC 1637). Format: cell-based, Pseudomonas aeruginosa. Particulars: broth microdilution in MHB, 37 °C, 24 h, 100% inhibition of growth. Here is the method: (§1) The antibacterial efficacy of the synthesized peptides was evaluated by determining the minimal inhibitory concentrations (MICs) against six standard bacterial strains and five drug-resistant bacterial strains using the Clinical and Laboratory Standards Institute (CLSI) microdilution method. Melittin served as the positive control.
(§2) The minimal inhibitory concentrations (MICs) of the peptides against bacterial strains were determined using a modified broth-microdilution method in accordance with the National Committee for Clinical Laboratory Standards (NCCLS) guidelines. Overnight cultures were diluted in cation-adjusted Mueller–Hinton Broth (MHB) to achieve an inoculum density of 2 × 10^6 CFU/mL. A two-fold serial dilution of the peptide solution (100 μL) was introduced into microtiter plates, followed by the addition of 100 μL of bacterial suspension. The plates were then incubated at 37 °C for 24 h to determine the MICs. Wells containing only culture media served as negative controls, while those with added bacteria functioned as positive controls. The MIC, expressed in μM, was defined as the lowest peptide concentration that prevented visible bacterial growth. This protocol was also employed to determine MICs in the presence of physiological salts (150 mM of NaCl, 4.5 mM of KCl, 6 μM of NH4Cl, 1 mM of MgCl2, 2.5 mM of CaCl2, and 4 μM of FeCl3) and 20% human serum to assess the peptides’ efficacy under conditions more closely resembling physiological environments. All experiments were conducted in triplicate and repeated three times independently to ensure reproducibility and statistical significance of the results.

In test [2] the test system is MDRPA (CCARM 2095) biofilm formation. Format: cell-based, multidrug-resistant Pseudomonas aeruginosa. Conditions: overnight 37 °C, crystal violet staining; for MBIC50: 50% inhibition; for MBIC90: 90% inhibition. The text has this:
Bacterial biofilms, comprising communities of bacterial cells encased in a matrix of polysaccharides and nucleic acids, present a significant challenge for conventional antibiotics due to the protective nature of this matrix. Biofilms can enhance bacterial resistance to antibiotics by up to 1000-fold compared to planktonic bacteria. To address this issue, there is an urgent need to discover and develop novel alternative therapeutic agents capable of effectively combating biofilm-forming bacteria. […] Our research specifically focused on evaluating the impact of BP100 and its analogs on biofilm formation and eradication using multidrug-resistant Pseudomonas aeruginosa (MDRPA), a common pathogen responsible for biofilm-mediated nosocomial infections. The adhered biomass was quantified using crystal violet staining, and the minimum biofilm inhibitory concentration (MBIC90) was determined as the lowest concentration required to inhibit 90% of biofilm growth relative to the positive control. […] Human cathelicidin LL-37 is well-documented for its potent antibiofilm properties.
The inhibitory activity of the peptides on biofilm formation was evaluated against multidrug-resistant Pseudomonas aeruginosa (MDRPA) (CCARM 2095) using a biofilm inhibition assay to determine the minimal biofilm inhibitory concentration (MBIC). Peptide solutions were serially diluted in sterile water and aliquoted (100 μL) into a 96-well Costar polypropylene plate (Corning Inc., Corning, NY, USA). An equal volume of MDRPA suspension in Mueller–Hinton Broth (MHB), adjusted to 1 × 10^6 CFU/mL, was added to each well, resulting in a final inoculum density of 5 × 10^5 CFU/mL. Following overnight incubation at 37 °C, bacterial growth was quantified by measuring the optical density (OD) at 595 nm. Planktonic cells were then discarded, and the attached biofilms were washed thrice with distilled water. Residual biofilms were stained with 0.1% crystal violet for five minutes, washed to remove non-adherent dye, and subsequently destained using 95% ethanol. The OD at 595 nm was measured again to assess the biofilm mass. Control wells contained untreated bacteria. The MBIC was defined as the lowest peptide concentration that inhibited any residual crystal violet staining or biofilm formation. All assays were conducted in triplicate to ensure reproducibility. This method allows for the quantitative assessment of the peptides’ ability to prevent biofilm formation, a critical virulence factor in many bacterial infections, particularly those caused by multidrug-resistant strains.

Another test relates to MDRPA (CCARM 2109). Format: cell-based, multidrug-resistant Pseudomonas aeruginosa. Conditions: broth microdilution in MHB, 37 °C, 24 h, 100% inhibition of growth. Here is the method: as §1, §2
Test [3] relates to MDRPA (CCARM 2095). It is filed as cell-based, multidrug-resistant Pseudomonas aeruginosa. Conditions: broth microdilution in MHB, 37 °C, 24 h, 100% inhibition of growth. As for the experimental part: as §1, §2
Test [4] deals with MDRPA (CCARM 2095). Format: cell-based, multidrug-resistant Pseudomonas aeruginosa. Conditions: for MICA: MIC of peptide alone: checkerboard, 37 °C, 24 h; for FICI: fractional inhibitory concentration index: peptide with ciprofloxacin, [A]/MICA + [B]/MICB. The text has this: Multidrug-resistant pathogens pose a significant challenge to both human and animal health. The steady decline in the discovery of new antibiotics has exacerbated the difficulty in developing effective therapies for infection control. Consequently, there is an urgent need for alternative strategies that can combat pathogens without inducing drug resistance. One such strategy involves the combination of different antimicrobial agents. The effects of antimicrobial peptides (AMPs) combined with conventional antibiotics often surpass those of individual drugs. […] The primary advantage of synergistic combinations lies in their ability to lower the concentration of each antimicrobial agent required for effective antibacterial activity. This approach offers several benefits, including reduced production costs, a decreased risk of adverse side effects, diminished toxicity to mammalian cells, and a lower likelihood of drug resistance development. In light of these potential advantages, we investigated the synergistic effects of BP100 and the five selected analogs in combination with ciprofloxacin against multidrug-resistant Pseudomonas aeruginosa (MDRPA) using a checkerboard synergy assay. Ciprofloxacin, an antibiotic belonging to the fluoroquinolone class, is commonly used to treat various bacterial infections, including urinary tract infections and pneumonia. It exerts a bactericidal effect by inhibiting bacterial DNA gyrase, thereby disrupting DNA replication and transcription […]. The fractional inhibitory concentration index (FICI) results for BP100 and its selected analogs, when paired with ciprofloxacin against MDRPA, are detailed in Table 5. […] Such combinations may offer a valuable approach to enhancing the efficacy of existing antibiotics and potentially mitigating the development of antimicrobial resistance.
The synergistic effects of peptide-antibiotic combinations against methicillin-resistant Staphylococcus aureus (MRSA; CCARM 3089) and multidrug-resistant Pseudomonas aeruginosa (MDRPA; CCARM 2095) were evaluated using the fractional inhibitory concentration index (FICI) method. Antibiotics and peptides were subjected to two-fold serial dilutions, mixed in equal ratios, and combined with a bacterial suspension adjusted to approximately 10^6 CFU/mL. The resulting mixtures were distributed into microplate wells and incubated at 37 °C with orbital shaking at 200 rpm for 24 h. Bacterial growth was monitored by measuring the optical density at 600 nm (OD600). The FICI was calculated using the broth microdilution checkerboard method, defined as the sum of the ratios of the minimum inhibitory concentrations (MICs) of each agent in combination to their individual MICs, according to the following equation: FICI = (MIC of antibiotic in combination/MIC of antibiotic alone) + (MIC of peptide in combination/MIC of peptide alone). The interpretation of FICI values was as follows: FICI ≤ 0.5 indicates synergy; 0.5 < FICI ≤ 1.0 indicates an additive effect; 1.0 < FICI ≤ 4.0 indicates indifference; and FICI > 4.0 indicates antagonism.

Where no end group is shown, it is not given here.

As to KKLFKKIWKWL-NH2 [BP11], the “Minimal Inhibitory Concentration (MIC)” value in test [1] is 8 µM; with MDRPA (CCARM 2109), 16 µM; in the test with MDRPA (CCARM 2095) [3] it was 8 µM. For the same substance, the MBIC50 in test [2] lay within 4 to 8 µM. In test [2], this substance registered an MBIC90 of 8 µM. In addition, the “MICA: MIC of peptide alone” value in the test on MDRPA (CCARM 2095) [4] is 8 µg/mL. For the same substance, the “FICI: fractional inhibitory concentration index” value in the test with MDRPA (CCARM 2095) [4] stood at 0.3125.

Consider KKLWKKILKWL-NH2 [BP8], for which the “Minimal Inhibitory Concentration (MIC)” value turned out to be 16 µM in test [1], 16 µM in the test with MDRPA (CCARM 2109) and 8 µM in the test with MDRPA (CCARM 2095) [3]. Further, the MBIC50 in test [2] lay in the range of 4 to 8 µM. Also, the MBIC90 in test [2] stood at 8 µM. Also, the “MICA: MIC of peptide alone” value in the test on MDRPA (CCARM 2095) [4] stood at 8 µg/mL.

KKWFKKILKWL-NH2 [BP6]: the “Minimal Inhibitory Concentration (MIC)” value in test [1] came to 16 µM. Besides, in test [2], the MBIC50 is 4 to 8 µM and the MBIC90 came out at 8 µM. Also, the “Minimal Inhibitory Concentration (MIC)” value with MDRPA (CCARM 2109) was found to be 16 µM. Besides, in the test on MDRPA (CCARM 2095) [3], the “Minimal Inhibitory Concentration (MIC)” value worked out at 8 µM. Further, in the test on MDRPA (CCARM 2095) [4], the “MICA: MIC of peptide alone” value was 8 µg/mL and the “FICI: fractional inhibitory concentration index” value is on record as 0.375.

Take KKWFKKWLKWL-NH2 [BP13]: the “Minimal Inhibitory Concentration (MIC)” value in test [1] amounted to 16 µM. In test [2], this substance came in with an MBIC50 of 4 to 8 µM and an MBIC90 of 8 µM. The “Minimal Inhibitory Concentration (MIC)” value in the test with MDRPA (CCARM 2109) amounted to 16 µM. Moreover, the “Minimal Inhibitory Concentration (MIC)” value in the test with MDRPA (CCARM 2095) [3] turned out to be 8 µM. Besides, in the test with MDRPA (CCARM 2095) [4], the “MICA: MIC of peptide alone” value was determined as 8 µg/mL and the “FICI: fractional inhibitory concentration index” value is given as 0.2656.

Take KKWWKKILKYL-NH2 [BP5]: the “Minimal Inhibitory Concentration (MIC)” value in test [1] was 4 µM. In test [2], this substance had an MBIC50 of 4 to 8 µM and an MBIC90 of 8 µM. For the same substance, the “Minimal Inhibitory Concentration (MIC)” value in the test with MDRPA (CCARM 2109) amounted to 4 µM. Besides, in the test with MDRPA (CCARM 2095) [3], the “Minimal Inhibitory Concentration (MIC)” value was found to be 8 µM. In addition, in the test on MDRPA (CCARM 2095) [4], the “MICA: MIC of peptide alone” value amounted to 8 µg/mL and the “FICI: fractional inhibitory concentration index” value was determined as 0.3125.
